Reference: paper PMC8297402, “Trifluoromethyl-substituted 3,5-bis(arylidene)-4-piperidones as potential anti-hepatoma and anti-inflammation agents by inhibiting NF-кB activation” (Journal of Enzyme Inhibition and Medicinal Chemistry, 2021)
“And” between values parts separate entries of the source, which are not always exact repeats. Identical values can stand only once. Like-named read-outs stand apart in the source and are kept apart here.

Experiments:
HepG2 = assay: Modified MTT cytotoxicity assay, HepG2; format: cell-based, Human; conditions: for SI value, average: average of SI for HepG2 and SMMC-7721; for SI (selectivity index) HepG2: quotient of IC50 for normal (LO2) and malignant (HepG2) cells
Procedure: (§1) The HepG2, SMMC-7721, and LO2 cell lines were maintained at 37 °C, 5% humidified CO2, and 95% atmosphere. Dulbecco's Modified Eagle (DMEM) medium containing 10% foetal bovine serum (FBS) was used for culturing the HepG2 cell line; meanwhile, Roswell Park Memorial Institute (RPMI) 1640 medium containing 10% FBS was used for culturing other cell lines (SMMC-7721, LO2). The HepG2, SMMC-7721 and LO2 cells were seeded in a 96-well plate in 200 μL of medium per well at a density of approximately 8 × 10^3 cells/well and cultured for 24 h, followed by incubation in an incubator of indicated compounds with successive concentrations (10, 5, 2.5, 1.25, 0.625, 0.3125 μg/mL) for 24 h. In the control group, cells were only cultured with culture media. After the media were removed, 20 μL of MTT (5 mg/mL) was added, then cells were incubated for 4 h at 37 °C. […] GraphPad Prism 5 software was used to calculate their IC50 values. Every IC50 value was the average of three replicates. Doxorubicin (DOX) and curcumin were used as positive controls.

LO2 = assay: Modified MTT cytotoxicity assay, normal heptical cell line LO2; format: cell-based, human; conditions: 24 h incubation
Procedure: as §1

HHL-5 = assay: Modified MTT cytotoxicity assay, normal heptical cell line HHL-5; conditions: read-out: Cytotoxicity IC50 HHL-5; MTT, normal heptical cell line
Procedure: (§3) To further verify the anti-tumour activity, one human non-small cell lung cancer cell line (A549), one human ovarian cancer cell line (A2780), and one human normal heptical cell line (HHL-5) were screened by BAPs (4–30) using a modified MTT assay (Supporting Information). DOX and curcumin were selected as positive controls.
(§4) The optical density (OD) value of each well was measured on a
(§5) multi-well plate reader (TECAN, Mӓnnedorf, Switzerland ) at 570 nm.
(§6) Every IC 50 value was the average of three replicates.
(§7) Doxorubicin (DOX) and Curcumin were used as positive controls.

A2780 = assay: Modified MTT cytotoxicity assay, A2780; conditions: for SI (selectivity index) A2780: quotient of IC50 for normal (HHL-5) and malignant (A2780) cells
Procedure: as §3, §4, §5, §6, §7

TNF-α = assay: ELISA of TNF-α release in LPS-stimulated RAW264.7 cells; format: cell-based, mouse; conditions: for Inhibition rates against IL-6 and TNF-α cytokine release, average: average of TNF-α and IL-6, 5 μM + LPS, RAW264.7; for Inhibition rate TNF-α: BAPs (5 μM) + LPS (1 μg/mL); for Inhibition rate TNF-α / inhibition at 5 µM: RAW264.7, ELISA; for inhibition at 5 µM: Mus musculus, RAW264.7, BAPs (5 μM) + LPS (1 μg/mL), read-out: Inhibition rate TNF-α
Procedure: (§2) We tested by inhibiting the secretion of TNF-α and IL-6 to better evaluated the anti-inflammatory effects of BAPs. […] Under the stimulation of LPS (1.0 μg/mL) with RAW264.7 cells, the release of TNF-α and IL-6 was detected. Besides, after treated with BAPs (5.0 μM) and LPS (1.0 μg/mL), the release of TNF-α and IL-6 was measured with an ELISA kit (eBioScience, San Diego, California), respectively. In general terms, pyrrolidine dithiocarbamate (PDTC, 30 μM) or BAP (5.0 μM) was used to pretreat cells for 2 h, respectively. Then, LPS (1.0 μg/mL) was added and cells were incubated for another 22 h. Finally, the culture media were centrifuged at 1000 rpm for 10 min, and the expression levels of TNF-α and IL-6 were determined by ELISA.

RAW264.7 cell = assay: MTT toxicity pre-experiment on RAW264.7 macrophagocyte; format: cell-based, mouse; conditions: for Survival rate RAW264.7 cell: BAPs 5 μM; for viability at 5 µM: Mus musculus, RAW264.7, BAPs 5 μM, read-out: Survival rate RAW264.7 cell
Procedure: Lipopolysaccharide (LPS) is a key constituent of Gram-negative bacterial endotoxin, which is used to induce an inflammatory response in corresponding inflammatory cells. TNF-α and IL-6 are two kinds of representative pro-inflammatory factors, which produced by LPS-stimulated RAW264.7 macrophage. In our pre-experiments, the toxicity against RAW264.7 macrophagocyte for all title compounds was tested by the MTT assay, and the results were listed in Table 2. The survival rates were above 80% for all BAPs (4-30) at the concentration of 5.0 μM.

SMMC-7721 = assay: Modified MTT cytotoxicity assay, SMMC-7721; format: cell-based, Human; conditions: for IC50: MTT, 24 h incubation, three replicates; for SI (selectivity index) SMMC-7721: quotient of IC50 for normal (LO2) and malignant (SMMC-7721) cells
Procedure: as §1

A549 = assay: Modified MTT cytotoxicity assay, A549; conditions: for SI (selectivity index) A549: quotient of IC50 for normal (HHL-5) and malignant (A549) cells
IL-6 = assay: ELISA of IL-6 release in LPS-stimulated RAW264.7 cells; format: cell-based, mouse; conditions: RAW264.7, ELISA; for Inhibition rate IL-6: BAPs (5 μM) + LPS (1 μg/mL); for inhibition at 5 µM: Mus musculus, RAW264.7, BAPs (5 μM) + LPS (1 μg/mL), read-out: Inhibition rate IL-6
Procedure: as §2

[1] = Modified MTT cytotoxicity assay, normal heptical cell line LO2; format: cell-based, human; conditions: human, LO2 cells (normal hepatic cell line), 24 h incubation
Procedure: as §1

[2] = Modified MTT cytotoxicity assay, normal heptical cell line HHL-5; conditions: human, HHL-5 cells (normal hepatic cell line)
Procedure: as §3, §4, §5, §6, §7

[3] = MTT, 24 h incubation, three replicates, read-out: Cytotoxicity IC50 HepG2
[4] = average of HepG2 and SMMC-7721, read-out: Cytotoxicity against HCC cells, average
[5] = read-out: Cytotoxicity IC50 A2780, MTT, ovarian cancer cell line
[6] = read-out: Cytotoxicity IC50 A549, MTT, non-small cell lung cancer cell line
[7] = Homo sapiens, HepG2, 24 h, MTT, 24 h incubation, three replicates, read-out: Cytotoxicity IC50 HepG2
[8] = Homo sapiens, A2780, read-out: Cytotoxicity IC50 A2780, MTT, ovarian cancer cell line
[9] = Homo sapiens, A549, read-out: Cytotoxicity IC50 A549, MTT, non-small cell lung cancer cell line

SMILES | IC50 (HepG2; [3]) | SI (selectivity index) HepG2 (HepG2) | IC50 (LO2) | IC50 (HHL-5) | SI (selectivity index) A2780 (A2780) | IC50 (A2780; [5]) | Survival rate RAW264.7 cell (RAW264.7 cell) | IC50 (SMMC-7721) | SI (selectivity index) SMMC-7721 (SMMC-7721) | SI (selectivity index) A549 (A549) | IC50 (A549; [6]) | Inhibition rate IL-6 (IL-6) | Inhibition rate TNF-α (TNF-α) | further results
O=C1/C(=C/c2ccc(C(F)(F)F)cc2)CN(S(=O)(=O)c2ccc(C(F)(F)F)cc2)C/C1=C\c1ccc(C(F)(F)F)cc1 [BAP 25] | 0.9 ± 0.2 µM | 20.3 | 18.3 ± 0.6 µM | 11.1 ± 0.2 µM | 39.6 | 0.28 ± 0.03 µM | 87.3% and 87.3 ± 4.2% | 1.3 ± 0.3 µM | 14.1 | 41.1 | 0.27 ± 0.03 µM | – | – | IC50 (HepG2; [4]): 1.1 µM; SI value, average (HepG2): 17.2; Inhibition rates against IL-6 and TNF-α cytokine release, average (TNF-α): 78.6%
CC(=O)Nc1ccc(S(=O)(=O)N2C/C(=C\c3ccc(C(F)(F)F)cc3)C(=O)/C(=C/c3ccc(C(F)(F)F)cc3)C2)cc1 [BAP 30] | 1.8 ± 0.2 µM | 7.9 | 14.2 ± 1.1 µM | 2.1 ± 0.1 µM | 16.2 | 0.13 ± 0.02 µM | 92.0 ± 1.3% | 3.1 ± 0.2 µM | 4.6 | 21.4 | 0.098 ± 0.01 µM | 70.1 ± 1.2% | 68.3 ± 3.1% | –
O=C1/C(=C/c2ccc(C(F)(F)F)cc2)CN(S(=O)(=O)c2ccc([N+](=O)[O-])cc2)C/C1=C\c1ccc(C(F)(F)F)cc1 [BAP 24] | 1.2 ± 0.3 µM | 12.0 | 14.4 ± 0.1 µM | 7.5 ± 0.6 µM | 44.1 | 0.17 ± 0.02 µM | 89.0 ± 1.6% | 3.2 ± 0.3 µM | 4.5 | 44.1 | 0.17 ± 0.01 µM | 57.3 ± 2.1% | 65.0 ± 1.8% | –
N#Cc1ccc(S(=O)(=O)N2C/C(=C\c3ccc(C(F)(F)F)cc3)C(=O)/C(=C/c3ccc(C(F)(F)F)cc3)C2)cc1 [BAP 29] | 1.7 ± 0.1 µM | – | 21.5 ± 1.5 µM | 16.5 ± 0.3 µM | 91.7 | ~0.18 µM | 83.4% and 83.4 ± 3.3% | 1.3 ± 0.3 µM | 16.5 | 203.7 | ~0.081 µM | – | – | IC50 (HepG2; [4]): 1.5 µM; SI value, average (HepG2): 14; IC50 (A2780; read-out: Cytotoxicity IC50 A2780, MTT, ovarian cancer cell line, listed as 29): 0.18 ± 0.01 µM; Inhibition rates against IL-6 and TNF-α cytokine release, average (TNF-α): 73.4%; SI (selectivity), bound stated for A549 and A2780 together (A549; A549 and A2780 vs HHL-5): > 90; IC50 (A549; read-out: Cytotoxicity IC50 A549, MTT, non-small cell lung cancer cell line, listed as 29): 0.081 ± 0.004 µM
O=C1/C(=C/c2cccc(C(F)(F)F)c2)CN(S(=O)(=O)c2ccccc2)C/C1=C\c1cccc(C(F)(F)F)c1 [BAP 13] | – | 3.1 | – | – | 18.1 | – | – | – | 1.8 | 11.6 | – | – | – | IC50 (HepG2; [7]): 3.5 ± 0.1 µM; inhibition at 5 µM (IL-6): 48.9 ± 2.9%; IC50 at 24 h [1]: 10.1 ± 0.4 µM; IC50 [2]: 2.9 ± 0.2 µM; IC50 (A2780; [8]): 0.16 ± 0.01 µM; inhibition at 5 µM (TNF-α): 56.3 ± 2.1%; viability at 5 µM (RAW264.7 cell): 82.5 ± 1.3%; melting point: 151 to 153 °C; IC50 (SMMC-7721; Homo sapiens, SMMC-7721, 24 h): 5.7 ± 0.1 µM; IC50 (A549; [9]): 0.25 ± 0.01 µM
O=C1/C(=C/c2ccccc2C(F)(F)F)CN(S(=O)(=O)c2ccc([N+](=O)[O-])cc2)C/C1=C\c1ccccc1C(F)(F)F [BAP 6] | – | 3.7 | – | – | 0.3 | – | – | – | 1.5 | 1.0 | – | – | – | IC50 (HepG2; [7]): 4.3 ± 0.2 µM; inhibition at 5 µM (IL-6): 68.2 ± 3%; IC50 at 24 h [1]: 15.7 ± 1.3 µM; IC50 (A2780; [8]): 28.8 ± 5.33 µM; inhibition at 5 µM (TNF-α): 61 ± 2.7%; viability at 5 µM (RAW264.7 cell): 85.7 ± 3.1%; melting point: 204 to 206 °C; IC50 (SMMC-7721; Homo sapiens, SMMC-7721, 24 h): 10.4 ± 0.2 µM; IC50 (A549; [9]): 7.58 ± 1.76 µM
CC(=O)Nc1ccc(S(=O)(=O)N2C/C(=C\c3ccccc3C(F)(F)F)C(=O)/C(=C/c3ccccc3C(F)(F)F)C2)cc1 [BAP 12] | 12.9 ± 0.1 µM | 1.2 | 15.6 ± 1.3 µM | 7.9 ± 0.2 µM | 6.5 | 1.22 ± 0.06 µM | 86.4 ± 0.7% | 10.9 ± 0.4 µM | 1.4 | 3.3 | 2.39 ± 0.09 µM | 62.8 ± 3.0% | 67.2 ± 2.4% | –
CC(=O)Nc1ccc(S(=O)(=O)N2C/C(=C\c3cccc(C(F)(F)F)c3)C(=O)/C(=C/c3cccc(C(F)(F)F)c3)C2)cc1 [BAP 21] | 1.3 ± 0.1 µM | 11.1 | 14.4 ± 0.1 µM | 3 ± 0.6 µM | 17.6 | 0.17 ± 0.01 µM | 90.2 ± 3.6% | 5.1 ± 0.1 µM | 2.8 | 14.3 | 0.21 ± 0.01 µM | 71.6 ± 5.3% | 78.5 ± 4.2% | –
Cc1ccc(S(=O)(=O)N2C/C(=C\c3ccc(C(F)(F)F)cc3)C(=O)/C(=C/c3ccc(C(F)(F)F)cc3)C2)cc1 [BAP 23] | ~1 µM | 13.1 | 13.1 ± 0.3 µM | 3.5 ± 0.2 µM | 21.9 | 0.16 ± 0.02 µM | 89.2 ± 3.0% | ~0.8 µM | 16.4 | 23.3 | 0.15 ± 0.02 µM | 69.2 ± 6.3% | 78.1 ± 3.2% | IC50 (HepG2; MTT, 24 h incubation, three replicates, listed as 23, read-out: Cytotoxicity IC50 HepG2): 1 ± 0.3 µM; IC50 (SMMC-7721; listed as 23): 0.8 ± 0.2 µM
O=C1/C(=C/c2ccccc2C(F)(F)F)CN(S(=O)(=O)c2ccc(C(F)(F)F)cc2)C/C1=C\c1ccccc1C(F)(F)F [BAP 7] | ~2.1 µM | 8.2 | 17.2 ± 0.2 µM | 9.1 ± 0.2 µM | 27.6 | 0.33 ± 0.03 µM | 87.3 ± 1.9% | ~2.6 µM | 6.6 | 3.4 | 2.68 ± 0.53 µM | – | – | IC50 (HepG2; MTT, 24 h incubation, three replicates, listed as 7, read-out: Cytotoxicity IC50 HepG2): 2.1 ± 0.1 µM; Inhibition rate IL-6 (IL-6; 5 µM): ca. 71.2%; Inhibition rate IL-6 (IL-6; listed as 7, 5 µM): 71.2 ± 1.3%; Inhibition rate TNF-α (TNF-α; 5 µM): ca. 69.9%; Inhibition rate TNF-α (TNF-α; listed as 7, 5 µM): 69.9 ± 1.1%; IC50 (SMMC-7721; listed as 7): 2.6 ± 0.2 µM
